Measured values: patent US11690854B2, “Methods of treating heavy menstrual bleeding” (priority 2018, dated 2023)
Entries after “also recorded” stand apart in the source; their conditions may differ.

Tests used:
QTc interval = experiment: Thorough QT study; assay type: in vivo; conditions: up to 1200 mg; 17- to 23-fold of therapeutic concentrations; active control moxifloxacin 400 mg
Description: The effect of elagolix (up to 1200 mg) on QTc interval was evaluated in an active-controlled (moxifloxacin 400 mg) thorough QT study.

[1] = Pharmacokinetic properties of ELAGOLIX in healthy subjects; assay type: in vivo, human; conditions: for AUC: plasma; for AUC / Cmax: steady state, mean
[2] = Binding to human plasma proteins; assay type: in vitro ADME; conditions: read-out: % Bound to human plasma proteins (converted)
[3] = Pharmacokinetics in specific populations (renal, hepatic impairment); assay type: in vivo, human; conditions: for Elagolix exposures in severe hepatic impairment relative to normal hepatic function: severe hepatic impairment (Child-Pugh C)
Excerpt: The mean exposures are similar for women with moderate to severe or end stage renal disease (including women on dialysis) compared to women with normal renal function.
Elagolix exposures (Cmax and AUC) are similar between women with normal hepatic function and women with mild hepatic impairment. Elagolix exposures in women with moderate and severe hepatic impairment are approximately 3-fold and 7-fold, respectively, of exposures from women with normal hepatic function.

[4] = system: cytochrome P450 (CYP) 3A enzyme; experiment: Drug interaction potential: CYP3A
Excerpt: Co-administration with ELAGOLIX may decrease plasma concentration of drugs that are substrates of CYP3A.
(§1) Elagolix is a substrate of CYP3A, P-gp, and organic anion transporting polypeptide (OATP)1B1. Clinically meaningful interactions are not expected when ELAGOLIX is co-administered with drugs that inhibit CYP3A or P-gp.

[5] = target: efflux transporter P-glycoprotein (P-gp) (Homo sapiens, UniProt P08183); experiment: Drug interaction potential: P-gp
Chain of efflux transporter P-glycoprotein (P-gp) (P08183 whole entry): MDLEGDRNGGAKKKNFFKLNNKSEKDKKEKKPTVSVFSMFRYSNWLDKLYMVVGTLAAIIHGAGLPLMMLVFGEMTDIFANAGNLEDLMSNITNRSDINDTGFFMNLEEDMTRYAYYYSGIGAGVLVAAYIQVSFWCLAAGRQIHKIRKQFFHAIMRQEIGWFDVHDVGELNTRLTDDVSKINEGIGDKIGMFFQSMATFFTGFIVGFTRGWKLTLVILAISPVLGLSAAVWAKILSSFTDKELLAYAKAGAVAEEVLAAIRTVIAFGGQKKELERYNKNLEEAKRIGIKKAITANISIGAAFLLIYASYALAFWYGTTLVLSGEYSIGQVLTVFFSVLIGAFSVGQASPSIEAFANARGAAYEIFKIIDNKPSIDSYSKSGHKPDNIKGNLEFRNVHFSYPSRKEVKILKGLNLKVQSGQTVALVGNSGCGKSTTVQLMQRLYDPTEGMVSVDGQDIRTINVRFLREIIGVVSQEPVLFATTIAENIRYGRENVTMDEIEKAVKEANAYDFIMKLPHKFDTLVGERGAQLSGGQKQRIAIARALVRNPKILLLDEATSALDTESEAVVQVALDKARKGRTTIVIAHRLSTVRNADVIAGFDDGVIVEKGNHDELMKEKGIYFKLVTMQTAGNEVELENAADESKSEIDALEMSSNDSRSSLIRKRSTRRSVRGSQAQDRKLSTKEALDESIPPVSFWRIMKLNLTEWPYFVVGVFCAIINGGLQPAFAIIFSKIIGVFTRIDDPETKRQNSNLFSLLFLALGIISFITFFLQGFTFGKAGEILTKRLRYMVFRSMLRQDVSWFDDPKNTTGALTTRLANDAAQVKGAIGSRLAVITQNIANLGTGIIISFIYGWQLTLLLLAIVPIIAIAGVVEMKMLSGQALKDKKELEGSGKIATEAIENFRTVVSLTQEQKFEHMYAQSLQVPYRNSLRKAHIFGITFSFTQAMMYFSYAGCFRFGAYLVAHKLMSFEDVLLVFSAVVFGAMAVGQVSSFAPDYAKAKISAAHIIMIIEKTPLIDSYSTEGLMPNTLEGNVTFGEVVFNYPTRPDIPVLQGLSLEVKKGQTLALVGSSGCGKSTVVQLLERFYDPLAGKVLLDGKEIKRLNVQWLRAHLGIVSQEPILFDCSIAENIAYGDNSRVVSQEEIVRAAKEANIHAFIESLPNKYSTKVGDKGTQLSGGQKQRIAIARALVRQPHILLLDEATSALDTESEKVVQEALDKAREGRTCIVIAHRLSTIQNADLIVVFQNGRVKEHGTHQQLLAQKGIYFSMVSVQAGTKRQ
Description: Elagolix is an inhibitor of efflux transporter P-glycoprotein (P-gp) at 200 mg BID or higher, such as 300 mg BID or 400 mg QD or 600 mg QD. Co-administration with ELAGOLIX 200 mg BID may increase plasma concentration of drugs that are substrates of P-gp.
as §1

[6] = target: T1, organic anion transporting polypeptide (OATP)1B1 (Homo sapiens, UniProt Q9Y6L6); experiment: Drug interaction potential: OATP1B1
T1 sequence (Q9Y6L6 1-691): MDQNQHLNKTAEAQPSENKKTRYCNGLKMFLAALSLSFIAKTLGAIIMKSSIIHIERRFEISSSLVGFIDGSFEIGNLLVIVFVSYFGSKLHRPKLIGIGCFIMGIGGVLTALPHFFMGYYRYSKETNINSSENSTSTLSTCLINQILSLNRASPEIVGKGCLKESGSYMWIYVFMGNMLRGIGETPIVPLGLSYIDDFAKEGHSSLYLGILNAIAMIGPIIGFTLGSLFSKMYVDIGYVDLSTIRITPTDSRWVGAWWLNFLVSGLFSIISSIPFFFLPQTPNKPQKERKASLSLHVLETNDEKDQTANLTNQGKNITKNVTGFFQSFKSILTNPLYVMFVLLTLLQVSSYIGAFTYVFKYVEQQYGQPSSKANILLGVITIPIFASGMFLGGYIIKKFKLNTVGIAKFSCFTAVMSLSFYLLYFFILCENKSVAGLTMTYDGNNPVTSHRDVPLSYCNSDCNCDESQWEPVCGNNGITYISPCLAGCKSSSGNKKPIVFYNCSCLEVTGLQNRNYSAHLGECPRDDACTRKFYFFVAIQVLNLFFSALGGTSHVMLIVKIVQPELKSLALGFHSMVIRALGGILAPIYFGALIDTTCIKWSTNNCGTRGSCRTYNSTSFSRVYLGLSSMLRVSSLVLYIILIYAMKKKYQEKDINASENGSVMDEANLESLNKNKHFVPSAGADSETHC
Description: as §1
Co-administration of ELAGOLIX with drugs that inhibit OATP1B1 may increase elagolix plasma concentrations. Use of potent OATP1B1 inhibitors are not recommended with ELAGOLIX 200 mg BID regimen.

[7] = system: women with moderate to severe endometriosis-related pain; experiment: PROMIS Fatigue SF-6a in Phase III study of endometriosis pain; assay type: in vivo, human
Description: A Phase III study was conducted to assess the effects of elagolix for clinically meaningful reductions in pain and other symptoms. Data provided examined the impact of elagolix on fatigue in women with moderate to severe endometriosis-related pain. […] Fatigue was assessed using the Patient Reported Outcome Measurement Information System (PROMIS®), Fatigue Short Form (SF) 6a. Six items assessed a range of self-reported symptoms from mild, subjective feelings of tiredness to overwhelming, sustained sense of exhaustion that likely decreases one's ability to execute daily activities and function normally. The domain was divided into the experience of fatigue (frequency, duration and intensity) and impact of fatigue on physical, mental and social activities. All items assessed fatigue over the previous seven days. […] Lower scores indicated less fatigue. Post-hoc, Fatigue SF-6a raw scores were converted to T-scores. The T-score rescales […] the raw score into a standardized score such that the general population has a mean of 50 and a standard deviation (SD) of 10. Analysis: […] ANCOVA controlled for treatment as main effect. Baseline Fatigue SF-6a T-score included as a covariate.

**Q.** Which “Effect on QTc interval” value (QTc interval) does the source give for `COc1cccc(-c2c(C)n(Cc3c(F)cccc3C(F)(F)F)c(=O)n(C[C@H](NCCCC(=O)O)c3ccccc3)c2=O)c1F` [Elagolix, 4-((R)-2-[5-(2-fluoro-3-methoxy-phenyl)-3-(2-fluoro-6-trifluoromethyl-benzyl)-4-methyl-2,6-dioxo-3,6-dihydro-2H-pyrimidin-1-yl]-1-phenyl-ethylamino)-butyric acid] here?
**A.** does not prolong the QTc interval

**Q.** What about the Tmax ([1]; healthy subjects) of the same molecule?
**A.** 1.0 h

**Q.** And the blood plasma ratio ([1]; human, blood and plasma)?
**A.** 0.6

**Q.** What about the “Major route of elimination” value ([1]; human, in vivo) of the same molecule?
**A.** Hepatic metabolism

**Q.** What about the “Metabolism, minor pathways” value ([1]; human, in vivo) of the same molecule?
**A.** glucuronosyltransferases (UGTs)

**Q.** And the half-life ([1]; human, in vivo, oral, healthy subjects, read-out: Terminal phase elimination half-life (t½))?
**A.** 4 to 6 h

**Q.** What about the “Metabolism, minor pathways” value ([1]; human, in vivo, listed as ELAGOLIX) of the same molecule?
**A.** Minor pathways include: CYP2D6,; also recorded: CYP2C8, and uridine

**Q.** And the AUC ([1]; human, oral, 150 mg QD, τ 24 hours, % CV 31)?
**A.** 1290 ng·h/mL

**Q.** And the AUC ([1]; human, oral, 200 mg BID, τ 12 hours, % CV 57)?
**A.** 1720 ng·h/mL

**Q.** And the Metabolism ([1]; major pathway)?
**A.** CYP3A (major)

**Q.** What about the Cmax ([1]; 150 mg QD, % CV 29) of the same molecule?
**A.** 574 ng/mL

**Q.** What about the Cmax ([1]; 200 mg BID, % CV 68) of the same molecule?
**A.** 774 ng/mL

**Q.** What about the fraction unbound [2] of the same molecule?
**A.** 0.2

**Q.** And the “Elagolix exposures in moderate hepatic impairment relative to normal hepatic function” value ([3]; moderate hepatic impairment (Child-Pugh B))?
**A.** approximately 3 fold

**Q.** And the “Elagolix exposures (Cmax and AUC) in renal impairment” value ([3]; moderate to severe or end stage renal disease vs normal renal function)?
**A.** not altered by renal impairment

**Q.** What about the “Elagolix exposures in severe hepatic impairment relative to normal hepatic function” value [3] of the same molecule?
**A.** ~7 fold

**Q.** And the “Elagolix exposures in severe hepatic impairment relative to normal hepatic function” value ([3]; listed as elagolix)?
**A.** approximately 7 fold

**Q.** And the “Elagolix exposures (Cmax and AUC) in mild hepatic impairment” value ([3]; vs women with normal hepatic function)?
**A.** similar

**Q.** And the “Induction of CYP3A” value [4]?
**A.** weak to moderate inducer

**Q.** What about the “Substrate of CYP3A” value [4] of the same molecule?
**A.** substrate

**Q.** What about the “Substrate of P-gp” value [5] of the same molecule?
**A.** substrate

**Q.** What about the “Inhibition of P-gp” value ([5]; at 200 mg BID or higher, such as 300 mg BID or 400 mg QD or 600 mg QD) of the same molecule?
**A.** inhibitor

**Q.** What about the “Substrate of OATP1B1” value [6] of the same molecule?
**A.** substrate

**Q.** What about the “PROMIS Fatigue SF-6a T-Score” value ([7]; 200 mg, Month 1) of the same molecule?
**A.** statistically significant reduction in fatigue

**Q.** And the “PROMIS Fatigue SF-6a T-Score” value ([7]; both doses (150 mg QD, 200 mg BID), Months 3 and 6)?
**A.** Statistically significant reductions relative to placebo
